PMC4433269 (PLoS ONE, 2015)
Like-named read-outs stand apart in the source and are kept apart here.

Columns and labels:
[1] = assay type: physicochemical; conditions: for Stability RSD%: 0 h, 24 h and 48 h; for Stability of QC samples: RSD % less than 15%
Procedure: The selectivity was examined by detecting blank K-R nutrient solutions, which were useful only if no peaks appeared at the retention times of aconitine and digoxin. The inter-day and intra-day accuracies were evaluated by calculating the percent relative standard deviation (RSD %) of the concentration of the quality control (QC) samples on the same day or over three days. The matrix effect was determined by comparing the concentrations of samples with standard solution added into a blank K-R solution after extraction with QC samples. The extraction recovery was calculated by comparing the concentration of normally extracted samples with that of the QC samples. The stability was evaluated by calculating the RSD % of the concentration of the quality control (QC) samples at 0 h, 24 h and 48 h. The accuracy, matrix effect, extraction recovery and stability were all replicated by five QC samples at three levels. The LOD and LLOQ were the concentrations of QC samples with peak signal-to-noise ratios (S/N) of at least 3 and 10, respectively.

[2] = Solubility in tested solvents during sample processing; conditions: tested solvents: methanol, ethanol, acetonitrile, distilled water, DMSO
Procedure: Because there were numerous inorganic salts that were harmful to the mass spectrometer in the everted sac samples, dechloridation was the first consideration when we developed the processing method. We applied lyophilization as the first step for prolonging the resting period of the samples to avoid the decomposition of unstable components. […] Therefore, the second step consisted of dissolving aconitine in methanol. […] The third step consisted of centrifuging, and 5 μL of the supernatant liquid was injected into the UPLC/MS.

P-glycoprotein [3] = test: Effect on the level of the P-gp substrate digoxin in rat gut sacs; assay type: in vitro ADME
Procedure: (§1) All of the rats were starved for 24 h before the experiments. The rats were sacrificed by decapitation, and the duodenum, jejunum, ileum and colon were immediately removed and placed in a 37°C K-R solution that was oxygenated (O2/CO2, 95%:5%). After washing in order with K-R solution at room temperature, the four intestinal segments were everted on a glass rod (3 mm in diameter) with one end of each clamped before filling with fresh oxygenated K-R solution. The intestines were then sealed with braided sutures. Each sac was placed in a 10 mL test tube that contained 8 mL of oxygenated drug-containing K-R solution at 37°C. Then, 0.1 mL of serosal fluid was collected at the appropriate time points, and an equal volume of K-R solution was added to the serosal side. Finally, the solution in the sacs was collected to accurately calculate the volume, and each sac was accurately weighed before and after being cut open. The area of each sac was measured. All of the samples were analyzed using the UPLC-MS method. After analysis, the amounts (ng/mm^2) of absorbed aconitine and digoxin were calculated. Each experiment was repeated five times, and the presented data represent the means ± S.D. This study was conducted in accordance with the internationally accepted principles for laboratory animal use and care as found in the European Community guidelines.
The flow rate was 0.3 mL/min.

everted rat gut sacs [4] = conditions: for ER(P2/P0): Papp with 6-gingerol / Papp alone; for ER(P1/P0): Papp with Rhizoma Zingiberis extract / Papp alone
Procedure: as §1
(§2) The analytical UPLC-MS system consisted of an Acquity Ultra Performance LC with a Xevo TQ mass spectrometer as the detector, and it was equipped with an electrospray source in the positive ion mode (Waters Co., USA). Separation was performed on a BEH Extend-C18 column (2.1*50 mm, 1.7 μm, Agilent Co., USA). The mobile phase was composed of methanol mixed with acetonitrile in equal volumes (A) and an aqueous solution of ammonium acetate at pH 10.5 (B). The gradient elution conditions were as follows: 0–1 min 10–43% A, 2–4.5 min 55–100% A, and 5–7 min 10% A. The flow rate was 0.3 mL/min. The column temperature was 35°C throughout the entire detection process. All of the samples were freeze-dried after being collected from the serosal side, and the residue was dissolved with 0.1 mL of the mobile phase (A) prior to injecting 5 μL of each sample into the UPLC system.
To study the effect of the Rhizoma Zingiberis extract on the concentration of aconitine in the rat gut sacs, the apparent […] coefficient (Papp) was calculated using the equation Papp = [V/(A·C0)]·dC/dt, where V represents the fluid volume in the serosal side, A represents the superficial area of the gut sac, and C0 represents the initial concentration of aconitine outside the gut sac.
The experiment described in this section was conducted under the same conditions as decribed in the “Effect of the Rhizoma Zingiberis extract on the level of aconitine in the rat gut sacs” section.

P-glycoprotein [5] = test system: P-glycoprotein; design: method as in earlier work; conditions: Caco-2 cell culture model; cited from earlier work
everted rat gut sacs [6] = assay type: in vitro ADME; conditions: 120 min
Procedure: as §1, §2
The intestinal kinetic absorptive behavior of aconitine was investigated in the gut sac model cultured in K-R nutrient solution for 120 min. The accumulative absorbed dose (Q) of aconitine was calculated for use in zero-level, primary and Higuchi equation fitting. Then, the determination coefficient (R^2) of the equation was set as the evaluation criterion for the quality of the fit. […] The slope of the fitting equation represents the absorption rate constant (ka).

P-glycoprotein [7] = conditions: deduced from verapamil effect in rat gut sacs
Procedure: as §1

everted rat gut sacs [8] = test: Viability of the everted rat gut sacs (serosal/mucosal glucose ratio); conditions: incubation up to 120 min; Fig 5
Procedure: To verify the integrity and viability of the gut sacs, glucose was collected from both the serosal side and the mucosal side of the rat gut sacs at a fixed time, and glucose was detected using a Waters UPLC/MS (Waters Co., USA), which is more accurate and sensitive than a UV-Vis detector. Separation was performed on a Hypersil NH column (4.6*150 mm, 25 μm, Elite Co., China). Although only glucose was available for detection in this part, the column separation was essential because large amounts of inorganic salts were present in the K-R nutrient solution. A mobile phase composed of 80% acetonitrile (A) and 20% distilled water (B) was used for isocratic elution. The retention time for glucose was 7.37 min. The peak area ratio of glucose in the serosal side to that in the mucosal side was used to validate the viability of the everted rat gut sacs.

[9] = Middle concentration QC samples

For `C[C@H]1O[C@@H](O[C@H]2[C@@H](O)C[C@H](O[C@H]3[C@@H](O)C[C@H](O[C@H]4CC[C@@]5(C)[C@H](CC[C@@H]6[C@@H]5C[C@@H](O)[C@]5(C)[C@@H](C7=CC(=O)OC7)CC[C@]65O)C4)O[C@@H]3C)O[C@@H]2C)C[C@H](O)[C@@H]1O` [digoxin, reference compound], the “Stability RSD%” value ([1]; High concentration QC samples) was 1.336%, the “Stability RSD%” value ([1]; Low concentration QC samples) was 2.036% and the “Stability RSD%” value [1, 9] was 4.913%. The “Stability of QC samples” value [1] was “stable for 48 h” and the Solubility in solvents [2] was “only could be dissolved in dimethyl sulfoxide (DMSO) among the tested solvents”.

In the case of `CCCCC[C@H](O)CC(=O)CCc1ccc(O)c(OC)c1` [6-gingerol], the “Effect on digoxin content in gut sacs” value (P-glycoprotein [3]; co-incubated with digoxin, every gut sac, Fig 7, Fig 9) is reported as “decreased”, the “Effect on P-glycoprotein (inducer / revulsant)” value (P-glycoprotein [3]; deduced from decreased digoxin level in rat gut sacs) is reported as “potential revulsant of P-gp” and the “Effect on the level (Papp) of aconitine in the rat gut sacs” value (everted rat gut sacs [4]; added to high aconitine concentration, all four gut sacs) is reported as “P2 value is smaller than the P0 value in each gut sac”.

For `CCN1C[C@]2(COC)[C@H](O)C[C@H](OC)[C@@]34[C@@H]5C[C@@]6(O)[C@H](OC(=O)c7ccccc7)[C@@H]5[C@@](OC(C)=O)([C@@H]([C@H](OC)[C@H]23)[C@@H]14)[C@@H](O)[C@@H]6OC` [aconitine], the “P-glycoprotein substrate / inhibitor status” value (P-glycoprotein [5]) is given as “both a substrate and an inhibitor of P-glycoprotein”, the “Fitting equation (zero-level; slope = absorption rate constant ka)” value (everted rat gut sacs [6]; colon, aconitine 75 ng/mL) is given as “Q = 0.01937t” and the “Fitting equation (zero-level; slope = absorption rate constant ka)” value (everted rat gut sacs [6]; colon, aconitine 750 ng/mL) is given as “Q = 0.1302t”. The “Fitting equation (zero-level; slope = absorption rate constant ka)” value (everted rat gut sacs [6]; colon, aconitine 7500 ng/mL) was “Q = 2.000t”, the “Fitting equation (zero-level; slope = absorption rate constant ka)” value (everted rat gut sacs [6]; duodenum, aconitine 75 ng/mL) was “Q = 0.02546t” and the “Fitting equation (zero-level; slope = absorption rate constant ka)” value (everted rat gut sacs [6]; duodenum, aconitine 750 ng/mL) was “Q = 0.05406t”. For the same molecule, the “Fitting equation (zero-level; slope = absorption rate constant ka)” value (everted rat gut sacs [6]; duodenum, aconitine 7500 ng/mL) was “Q = 3.528t”, the “Fitting equation (zero-level; slope = absorption rate constant ka)” value (everted rat gut sacs [6]; ileum, aconitine 75 ng/mL) was “Q = 0.01294t” and the “Fitting equation (zero-level; slope = absorption rate constant ka)” value (everted rat gut sacs [6]; ileum, aconitine 750 ng/mL) was “Q = 0.2906t”. The “Fitting equation (zero-level; slope = absorption rate constant ka)” value (everted rat gut sacs [6]; ileum, aconitine 7500 ng/mL) was “Q = 2.529t”, the “Fitting equation (zero-level; slope = absorption rate constant ka)” value (everted rat gut sacs [6]; jejunum, aconitine 75 ng/mL) was “Q = 0.02977t” and the “Fitting equation (zero-level; slope = absorption rate constant ka)” value (everted rat gut sacs [6]; jejunum, aconitine 750 ng/mL) was “Q = 0.2028t”. The “Fitting equation (zero-level; slope = absorption rate constant ka)” value (everted rat gut sacs [6]; jejunum, aconitine 7500 ng/mL) was “Q = 3.2531t”, the “Stability RSD%” value ([1]; High concentration QC samples) was 10.04% and the “Stability RSD%” value ([1]; Low concentration QC samples) was 2.448%. The “Stability RSD%” value [1, 9] was 11.72%, the “Stability of QC samples” value [1] was “stable for 48 h” and the “ER(P2/P0)” value (everted rat gut sacs [4]; colon) was 0.4363. The “ER(P1/P0)” value (everted rat gut sacs [4]; colon) was 0.6695, the “ER(P2/P0)” value (everted rat gut sacs [4]; duodenum) was 0.3602 and the “ER(P1/P0)” value (everted rat gut sacs [4]; duodenum) was 0.2703. The “ER(P2/P0)” value (everted rat gut sacs [4]; ileum) was 0.3464, the “ER(P1/P0)” value (everted rat gut sacs [4]; ileum) was 0.3615 and the “ER(P2/P0)” value (everted rat gut sacs [4]; jejunum) was 0.3979. For the same molecule, the “ER(P1/P0)” value (everted rat gut sacs [4]; jejunum) was 0.3942, the Solubility in solvents [2] was “able to be dissolved in methanol” and the P-glycoprotein substrate status (P-glycoprotein [7]) was “potential substrate of P-glycoprotein”. For the same molecule, the “Toxicity to gut sac tissue (glucose serosal/mucosal ratio)” value (everted rat gut sacs [8]) was “did not induce toxicity in the gut sac tissue”.
